Non-standard residues stand in square brackets, D forms with d. No end group written: not given here. Aib = CC(C)(N)C(=O)O
What was measured:
[1] = tested on: midshaft femur fracture; assay: Pain/function outcomes, locomotor open-field testing after midshaft femur fracture; type: in vivo, mice; conditions: for pain/function outcomes, well-being in the open field: 5 weeks post-fracture, measured once a week
Experimental: Pain/function outcomes in mice were accessed by turning to behavioral testing. Allodynia was evaluated using Von Frey probes, whereas gain was evaluated using DigiGait, functionality was evaluated using running wheels, and anxiety coupled with functionality was evaluated using locomotor open-field testing. Open-field locomotor testing afforded the most consistent measurements.
Mice were habituated to the behavior room for 30-60 minutes before testing locomotor activity. Animals were habituated once for 10 minutes to the locomotor boxes prior to the start of the experiment. They were then placed individually in a locomotor box with infrared light tracking beams for 10 minutes before being removed and placed back in their home cage. The mice were tracked via EthoVision using 3-point directionality testing. Mice were measured for two weeks prior to the experiment. They then underwent the midshaft femur fracture model and were assigned to one of three treatment groups: 1) abaloparatide DE20 twice a week; 2) phosphate buffered saline twice a week; or 3) ibuprofen (0.6 g/L) in their water. The mice were treated for 5 weeks post-fracture and measured once a week.
For FIGS. 26-28, day 0 represents the baseline data pre-fracture. Saline and SEQ ID NO: 4 (1 nmol) were injected twice/week. Ibuprofen was administered constantly in the mice's water at a concentration of 0.6 g/L.

[2] = parameters: species or system mice; conditions: mouse, in vivo, sc
Source text: (§1) SEQ ID NO: 4 was subcutaneously injected into fracture-bearing mice. […] The results are shown in FIG. 30, which is a graph of hours vs. percent injected dose in blood (cpm/g) of mice with midshaft femoral factures. […] The results are shown in FIG. 31, which is a graph of hours vs. percent injected dose in bone (cpm/g) of mice with midshaft femoral factures.

[3] = tested on: fracture site (fractured femur); parameters: species or system mice; conditions: mouse, in vivo; for cumulative residence time (AUC) at the fracture site / half-life at the fracture site: sc
Source text: as §1

[4] = tested on: midshaft femoral fractures; assay: Midshaft femur fracture healing in otherwise healthy mice (micro-CT, bend to failure); type: in vivo; conditions: for bone deposition in CT images: three weeks after initiation of treatment, FIG. 35
Source text: In some instances, elevated accumulation of SEQ ID NO: 4 at the fracture site improves fracture healing (e.g., FIGS. 26-30). In some instances, femur fracture healing times following administration of a starting dose calculated by allometric scaling of the human dose prescribed for abaloparatide (SEQ ID NO: 2) treatment of osteoporosis are compared.
Bone morphometric analyses confirmed a 1.5-fold increase in the ratio of mineralized volume (bone volume; BV) to total bone volume (total volume; TV) in the SEQ ID NO: 4-treated mice.
In some instances, such as, to establish whether the observed increase in bone deposition translates into an improvement in mechanical properties, the force required to bend the healed femurs until they fractured again was measured.
In some instances, the force to fracture in the SEQ ID NO: 4-treated mice exceeded that required to fracture the contralateral healthy femurs in the same mice or similar, unmodified femurs in saline-treated mice.
The length of the targeting oligopeptide was increased to determine if it increased the drug's affinity for broken bone sufficiently that retention of the anabolic payload at the fracture site would be prolonged and less frequent dosing may be required. Mice were doses once every three days, rather than daily. […] The results are shown in FIG. 34, which is a graph of treatment (saline, SEQ ID NO: 3 (0.1 nmol/mg (0.1×), 1 nmol/mg (1×), and 10 nmol/mg (10×), and SEQ ID NO: 4 (0.1 nmol/mg (0.1×), 1 nmol/mg (1×), and 10 nmol/mg (10×)) vs. max load (N) of mice with midshaft femoral factures.

[5] = tested on: type I diabetic femur fracture; type: in vivo; conditions: for callus mineralization (BV) and bone density (BV/TV): four weeks of treatment, micro-CT, FIG. 13 and 14; for strength of the fractures (max load, work to fracture): four weeks, 4-point bend, FIG. 15 and 16
Experimental: (§2) Targeted conjugates of SEQ ID NO: 5, abaloparatide (SEQ ID NO: 2), SEQ ID NO: 6, and SEQ ID NO: 9 (a conjugate with 10 aspartic acid residues) were synthesized using Fmoc solid-phase peptide synthesis. From SEQ ID NO: 5, amino acids 1-34 were used, and abaloparatide (SEQ ID NO: 2) is a stabilized version of amino acids 1-36 of SEQ ID NO: 1. Diabetes was induced in 40 8-week-old male CD-1 mice via seven subcutaneous injections of streptozotocin (STZ) until blood sugar readings were above 250 mg/dL. The mice were left in this confirmed diabetic state for 2 months to allow the diabetes to take effect on the bones. Then, aseptic surgical techniques were used to place a 23-gauge needle as an intramedullary nail in the femur of the anesthetized mice for internal fixation before fracture was induced with a drop-weight fracture device from RISystem and confirmed by x-ray. The mice received buprenorphine for three days post-fracture. They were dosed subcutaneously with a positive control of insulin, a negative control of vehicle, SEQ ID NO: 5, or abaloparatide (SEQ ID NO: 2) each day for 4 weeks. Fracture healing was assessed qualitatively using micro-CT (Scanco Medical Ag). Fractured femurs were tested for strength in a 4-point-bend-to-failure using an ElectroForce TestBench (TA Instruments, New Castle, DE). Maximum load, stiffness, displacement post-yield, and work-to-fracture data were generated. Statistical analysis was performed using a one-way analysis of variance (ANOVA) with significance reported with p values less than 0.05 (*) and 0.01 (**).
Four compounds were tested. […] Abaloparatide (SEQ ID NO: 2) is a stabilized version of parathyroid-related protein hormone. Dasatinib is an […] with off-target effects on both osteoblasts and osteoclasts that improve overall bone density. Dasatinib has also proven to be a senolytic. ITGA is a fibronectin mimetic that promotes intramembranous bone fracture healing. […] Therefore, it was hypothesized that the glucose regulating properties of full-length SEQ ID NO: 5 may be beneficial in healing type I diabetic fractures as a dual-action compound that may improve healing via two mechanisms. The compounds were compared against insulin as a positive control and saline as a negative control.
BV represents the bone volume of the 100 thickest micro-CT slices of the fracture callus and is a measure of how much bone has mineralized at the site of fracture repair. BV/TV represents the BV divided by TV of the 100 thickest micro-CT slides of the fracture callus and is a measure of how dense the bone is at the site of fracture repair. Insulin was dosed as 2 IU/day. Doses of 0.1×, 50×, and 10×, are […], and 10 nmol, respectively, of the conjugate delivered daily by subcutaneous injection. SEQ ID NO: 6 was dosed at 10 μmol/kg every other day.
Insulin was dosed at 2 IU/day. Doses of 0.1×, 50×, and 10×, are 0.1 nmol, 50 nmol, and […], of the conjugate delivered daily by subcutaneous injection. SEQ ID NO: 6 was dosed at 10 μmol/kg every other day.

[6] = tested on: type I diabetic femur fracture; assay: Fracture repair model, type I diabetes, compounds dosed in conjunction with insulin; type: in vivo, mice; conditions: with insulin 2 IU/day; for strength (maximum force, work to fracture, modulus): significance relative to insulin-treated group, FIG. 22A-C
Experimental: as §2
However, since […] patients will not stop taking their insulin to take a compound provided herein, the experiment was repeated with compounds dosed in conjunction with insulin (FIGS. 20-22). […]
For FIGS. 22A-22C, insulin was dosed at 2 IU/day in all groups, except for saline. […] All significance levels were calculated relative to the insulin-treated group, not the saline control group. […]

[7] = dosed once every three days, FIG. 34

CC(C)Cc1ccc(C(C)C(=O)O)cc1 (stereo not drawn) [ibuprofen, reference compound]
pain/function outcomes, well-being in the open field [1]: did not improve their pain/function outcomes

AVSEHQLLHDKGKSIQDLRRRELLEKLLxKLHTAEIRATSEVSPNSeeeeeeeeeeeeeeeeeeee [SEQ ID NO: 4]
distance traveled in 10 minutes ([1]; 1 nmol twice/week, FIG. 26): began to run farther
time spent moving in 10 minutes ([1]; 1 nmol twice/week, FIG. 27): began to run for longer periods of time
mean velocity in 10 minutes ([1]; 1 nmol twice/week, FIG. 28): began to run faster
pain/function outcomes, well-being in the open field [1]: more functionality and better well-being
circulation half-life [2]: 3.7 h
cumulative systemic exposure (AUC) [2]: 20 h
cumulative residence time (AUC) at the fracture site relative to abaloparatide [3]: 11 fold
residence time in the contralateral femur, fold lower than in the fractured femur [3]: 8 fold
cumulative residence time (AUC) at the fracture site [3]: 96 h
half-life at the fracture site [3]: 67 h
maximum load relative to free abaloparatide-treated femurs ([4]; FIG. 32): 2.5 fold
work to fracture relative to abaloparatide-treated femurs ([4]; FIG. 33): 3.5 fold
max load compared to saline (significance) [4, 7]: significantly higher
maximum load before breakage, abalode 20 versus abalode 10, greater strength ([4]; dosed once every three days, trend, FIG. 34): 20-30%
relative effectiveness at improving bone healing ([4]; mouse, in vivo): more effective (e.g., at improving bone healing) than SEQ ID NO: 3
time at which bones return to their previous unbroken strength ([4]; mouse, in vivo): between two and three weeks post-fracture
bone deposition in CT images [4]: distributed (e.g., more) evenly across the fractured area
morphometric basis of the increase in bone density ([4]; three weeks of therapy): primarily due to a reduction in trabecular spacing, rather than an increase in trabecular thickness
increase in the ratio of bone volume to total volume (BV/TV) ([4]; three weeks of therapy, compared with abaloparatide-treated mice): 1.5 fold
strength of repaired femurs above original unbroken femurs ([4]; versus contralateral healthy femurs): 30%

SEQ ID NO: 3: SEQ ID NO: 15 (AVSEHQLLHDKGKSIQDLRRRELLEKLLxKLHTAEIRATSEVSPNS) followed by eeeeeeeeee, e = D-glutamic acid (AVSEHQLLHDKGKSIQDLRRRELLEKLL[Aib]KLHTAEIRATSEVSPNS[dE][dE][dE][dE][dE][dE][dE][dE][dE][dE])
max load compared to saline (significance) [4, 7]: lacked significance when dosed every three days
healing in healthy femur fractures ([4]; mouse, in vivo): repeatedly accelerated healing in healthy femur fractures
relative effectiveness at improving bone healing ([4]; mouse, in vivo): better than abaloparatide

SEQ ID NO: 6: a targeted conjugate of dasatinib (e.g., D10-ester-dasatinib) ({ester‑dasatinib}-DDDDDDDDDD)
callus mineralization (BV) and bone density (BV/TV) [5]: without improving the callus mineralization
strength of the fractures (max load, work to fracture) [5]: improved strength
change in body mass ([5]; mouse, in vivo): lost weight
toxicity (in words) ([5]; mouse, in vivo): exhibited some toxicity at higher doses
healing in healthy femur fractures ([4]; mouse, in vivo): repeatedly accelerated healing in healthy femur fractures

SEQ ID NO: 7: ITGA (fibronectin mimetic cyclic peptide 101) conjugated with 10 glutamic acid residues (HEEEEEEEEEERRETAWA; also: cyclic, ring not given here)
healing in healthy femur fractures ([4]; mouse, in vivo): repeatedly accelerated healing in healthy femur fractures

SEQ ID NO: 8: cyclic peptide 102, a conjugate with 10 glutamic acid residues (HEEEEEEEEEERRETAWA; also: cyclic, ring not given here)
mineralization of the callus (bone volume) ([6]; four weeks, FIG. 20A): improved the mineralization of the callus better than insulin
strength (maximum force, work to fracture, modulus) [6]: significantly improved the strength compared to the insulin control

abaloparatide [SEQ ID NO: 2, reference compound]
callus mineralization (BV) and bone density (BV/TV) [5]: impacting density the most
strength (maximum force, work to fracture, modulus) [6]: significantly improved the strength compared to the insulin control
circulation half-life [2]: 4.2 h
cumulative systemic exposure (AUC) [2]: 24.4 h
cumulative residence time (AUC) at the fracture site [3]: 8 h
half-life at the fracture site [3]: 8.8 h
bone deposition in CT images [4]: concentrated on the periphery of the fracture, with minimal density bridging the opposing calluses

insulin [reference compound]
callus mineralization (BV) and bone density (BV/TV) [5]: improvement in mineralization
strength of the fractures (max load, work to fracture) [5]: not able to restore the quality of the bone
blood sugar levels ([5]; four-week treatment period, FIG. 18): the only compound to improve blood sugar levels
